From US20090281049A1, “New use of ginsenoside compound-k in manufacturing medicaments” (priority 2006, published 2009)

Experiments:
[1] = test system: carrageenan-induced acute inflammation in mice; experiment: Carrageenan-induced paw edema in mice; assay type: in vivo, Kunming mice
[2] = test system: carrageenan-induced acute inflammation in rats; experiment: Carrageenan-induced paw edema in rats; assay type: in vivo, Rat, SD strain
Experimental: Animals were firstly divided into large dose group: 10 mg/kg, iv, medium dose group: 5 mg/kg, iv, small dose group: 2.5 mg/kg, iv, an Indomethacin group: 1 mg/kg, po and a blank control group: physiological saline 10 mg/kg, iv. The animals were administered by the foregoing method for 3 days. The volume of the right hind paw of the rats was measured using hydroplethismometer before inflammation induced. 1 hour after the last administration, 0.1 ml 1% carrageenan was injected into the plantar surface of the right hind paw in order to induce inflammation. The volume of the right hind paw of the rats was measured by hydroplethismometer every other hour thereafter respectively. Swell rate and inhibition rate were calculated by the same method as above. Differences among groups were compared with t test.

[3] = mice, 360 mg/kg iv

CC(C)=CCC[C@](C)(O[C@@H]1O[C@H](CO)[C@@H](O)[C@H](O)[C@H]1O)[C@H]1CC[C@]2(C)[C@@H]1[C@H](O)C[C@@H]1[C@@]3(C)CC[C@H](O)C(C)(C)[C@@H]3CC[C@]12C [Ginsenoside Compound-K, ginsenoside Compound-K]
swell value ([1]; 2.5 mg/kg iv, 0 h): 1.49 ± 0.15 mL
inhibition rate ([1]; 2.5 mg/kg iv, 1 h): <14.70> %
swell rate ([1]; 2.5 mg/kg iv, 1 h): (66.63 ± 7.82) %
swell value ([1]; 2.5 mg/kg iv, 1 h): 2.36 ± 0.22 mL
inhibition rate ([1]; 2.5 mg/kg iv, 2 h): <12.30> %
swell rate ([1]; 2.5 mg/kg iv, 2 h): (64.26 ± 14.54) %
swell value ([1]; 2.5 mg/kg iv, 2 h): 2.43 ± 0.23 mL
inhibition rate ([1]; 2.5 mg/kg iv, 4 h): <29.40> %
swell rate ([1]; 2.5 mg/kg iv, 4 h): (61.75 ± 11.27) %
swell value ([1]; 2.5 mg/kg iv, 4 h): 2.33 ± 0.17 mL
inhibition rate ([1]; 2.5 mg/kg iv, 6 h): <31.64> %
swell rate ([1]; 2.5 mg/kg iv, 6 h): (53.48 ± 11.12) %
swell value ([1]; 2.5 mg/kg iv, 6 h): 2.22 ± 0.15 mL
swell value ([1]; 5 mg/kg iv, 0 h): 1.47 ± 0.13 mL
inhibition rate ([1]; 5 mg/kg iv, 1 h): <11.33> %
swell rate ([1]; 5 mg/kg iv, 1 h): (60.97 ± 18.09) %
swell value ([1]; 5 mg/kg iv, 1 h): 2.36 ± 0.23 mL
inhibition rate ([1]; 5 mg/kg iv, 2 h): <16.08> %
swell rate ([1]; 5 mg/kg iv, 2 h): (60.97 ± 18.41) %
swell value ([1]; 5 mg/kg iv, 2 h): 2.35 ± 0.16 mL
inhibition rate ([1]; 5 mg/kg iv, 4 h): <44.03> %
swell rate ([1]; 5 mg/kg iv, 4 h): (45.04 ± 18.30) %
swell value ([1]; 5 mg/kg iv, 4 h): 2.12 ± 0.22 mL
inhibition rate ([1]; 5 mg/kg iv, 6 h): <31.98> %
swell rate ([1]; 5 mg/kg iv, 6 h): (49.81 ± 17.26) %
swell value ([1]; 5 mg/kg iv, 6 h): 2.19 ± 0.19 mL
swell value ([1]; 10 mg/kg iv, 0 h): 1.56 ± 0.17 mL
inhibition rate ([1]; 10 mg/kg iv, 1 h): <40.64> %
swell rate ([1]; 10 mg/kg iv, 1 h): (40.81 ± 10.14) %
swell value ([1]; 10 mg/kg iv, 1 h): 2.18 ± 0.18 mL
inhibition rate ([1]; 10 mg/kg iv, 2 h): <42.79> %
swell rate ([1]; 10 mg/kg iv, 2 h): (41.56 ± 13.38) %
swell value ([1]; 10 mg/kg iv, 2 h): 2.19 ± 0.20 mL
inhibition rate ([1]; 10 mg/kg iv, 4 h): <65.66> %
swell rate ([1]; 10 mg/kg iv, 4 h): (27.64 ± 8.46) %
swell value ([1]; 10 mg/kg iv, 4 h): 1.98 ± 0.20 mL
inhibition rate ([1]; 10 mg/kg iv, 6 h): <67.80> %
swell rate ([1]; 10 mg/kg iv, 6 h): (23.58 ± 15.23) %
swell value ([1]; 10 mg/kg iv, 6 h): 1.91 ± 0.22 mL
overall effect on carrageenan-induced acute inflammation ([1]; mice, 10, 5, 2.5 mg/kg iv): able to inhibit carrageenan-induced acute inflammation in mice obviously
swell value ([2]; 2.5 mg/kg iv, 0 h): 1.33 ± 0.08 mL
inhibition rate ([2]; 2.5 mg/kg iv, 1 h): <13.97> %
swell rate ([2]; 2.5 mg/kg iv, 1 h): (20.22 ± 9.99) %
swell value ([2]; 2.5 mg/kg iv, 1 h): 1.59 ± 0.08 mL
inhibition rate ([2]; 2.5 mg/kg iv, 2 h): <8.80> %
swell rate ([2]; 2.5 mg/kg iv, 2 h): (29.40 ± 12.71) %
swell value ([2]; 2.5 mg/kg iv, 2 h): 1.71 ± 0.13 mL
inhibition rate ([2]; 2.5 mg/kg iv, 3 h): <16.54> %
swell rate ([2]; 2.5 mg/kg iv, 3 h): (34.80 ± 14.01) %
swell value ([2]; 2.5 mg/kg iv, 3 h): 1.79 ± 0.14 mL
inhibition rate ([2]; 2.5 mg/kg iv, 4 h): <24.08> %
swell rate ([2]; 2.5 mg/kg iv, 4 h): (29.49 ± 13.86) %
swell value ([2]; 2.5 mg/kg iv, 4 h): 1.71 ± 0.12 mL
inhibition rate ([2]; 2.5 mg/kg iv, 5 h): <15.78> %
swell rate ([2]; 2.5 mg/kg iv, 5 h): (31.22 ± 14.12) %
swell value ([2]; 2.5 mg/kg iv, 5 h): 1.74 ± 0.12 mL
swell value ([2]; 5 mg/kg iv, 0 h): 1.39 ± 0.12 mL
inhibition rate ([2]; 5 mg/kg iv, 1 h): <49.51> %
swell rate ([2]; 5 mg/kg iv, 1 h): (11.87 ± 6.23) %
swell value ([2]; 5 mg/kg iv, 1 h): 1.55 ± 0.11 mL
inhibition rate ([2]; 5 mg/kg iv, 2 h): <42.44> %
swell rate ([2]; 5 mg/kg iv, 2 h): (18.56 ± 9.77) %
swell value ([2]; 5 mg/kg iv, 2 h): 1.64 ± 0.09 mL
inhibition rate ([2]; 5 mg/kg iv, 3 h): <32.62> %
swell rate ([2]; 5 mg/kg iv, 3 h): (28.09 ± 11.34) %
swell value ([2]; 5 mg/kg iv, 3 h): 1.77 ± 0.12 mL
inhibition rate ([2]; 5 mg/kg iv, 4 h): <48.22> %
swell rate ([2]; 5 mg/kg iv, 4 h): (20.11 ± 11.20) %
swell value ([2]; 5 mg/kg iv, 4 h): 1.66 ± 0.13 mL
inhibition rate ([2]; 5 mg/kg iv, 5 h): <53.80> %
swell rate ([2]; 5 mg/kg iv, 5 h): (17.13 ± 10.13) %
swell value ([2]; 5 mg/kg iv, 5 h): 1.62 ± 0.11 mL
swell value ([2]; 10 mg/kg iv, 0 h): 1.42 ± 0.10 mL
inhibition rate ([2]; 10 mg/kg iv, 1 h): <72.87> %
swell rate ([2]; 10 mg/kg iv, 1 h): (6.38 ± 7.44) %
swell value ([2]; 10 mg/kg iv, 1 h): 1.51 ± 0.10 mL
inhibition rate ([2]; 10 mg/kg iv, 2 h): <56.96> %
swell rate ([2]; 10 mg/kg iv, 2 h): (13.87 ± 8.55) %
swell value ([2]; 10 mg/kg iv, 2 h): 1.62 ± 0.11 mL
inhibition rate ([2]; 10 mg/kg iv, 3 h): <61.49> %
swell rate ([2]; 10 mg/kg iv, 3 h): (16.06 ± 12.41) %
swell value ([2]; 10 mg/kg iv, 3 h): 1.65 ± 0.16 mL
inhibition rate ([2]; 10 mg/kg iv, 4 h): <70.38> %
swell rate ([2]; 10 mg/kg iv, 4 h): (11.51 ± 9.76) %
swell value ([2]; 10 mg/kg iv, 4 h): 1.58 ± 0.14 mL
inhibition rate ([2]; 10 mg/kg iv, 5 h): <78.23> %
swell rate ([2]; 10 mg/kg iv, 5 h): (8.07 ± 10.88) %
swell value ([2]; 10 mg/kg iv, 5 h): 1.53 ± 0.12 mL
overall effect on carrageenan-induced acute inflammation ([2]; rats, 10, 5, 2.5 mg/kg iv): able to inhibit carrageenan-induced acute inflammation in rats obviously
behaviour after intravenous injection [3]: their act was normal and no behavior out of the way was observed
